# Laboratory results reported in patent US9683254B2, “Compositions and methods for identifying enzyme and transport protein inhibitors” (San Diego State University (SDSU) Foundation, priority 2010, dated 2017).
# Key:
# HIV-1 PR [1] = molecular target: T1, HIV-1 PR (Human immunodeficiency virus type 1 group M subtype B, UniProt P04585); assay type: cell-based; design: expressed in transfected cells; host or cells: SupT1 T-cell clone (lentiviral transduction; rtTA/mCherry, 5xUAS-eGFP reporter, inducible PR/Gal4); details: for concentration resulting in eGFP activation: analyzed 50 hrs, range tested 1 nM to 20 μM
# Procedure: Finally, cells were infected with virus encoding the reporter, rtTA and inducible wild-type PR/Gal4 (pH-TRE-PR/Gal4) to test the ability for this system in T-cells to indicate the levels of PR activity.
# To determine the optimal time point for the analysis of eGFP expression in the presence of inhibitor, cells were activated with Dox and analyzed by flow cytometry 4, 8, 12, 16, 20, 25, 50, or 75 hours later. Six-well plates containing 250K cells per well in 3 mL media were treated either with DMSO alone as control, or 1 μg/mL Dox and 10 μM Indinavir.
# (§1) The range chosen extended from 1 nM to 20 μM.
# Flow Cytometry was performed on a BD FACSAria™ with 488 nm and 633 nm lasers. Data was collected on FACSDiva 6.1.1™ software and then exported to FlowJo™. eGFP expression was detected in the FITC channel and mCherry expression was detected on the PE-Texas-Red channel. Cells were first gated for size and granularity (FSC-A vs SSC-A) followed by doublet gating (FSC-A vs FSC-W and SSC-A vs. SSC-W). Sorted populations were gated on PE-TexasRed vs FITC plot. 250K cells were collected for each sample into 0.5 mL fetal calf serum (FCS) and 1 mL RPMI. Cells were then spun down at 1500 RPM and resuspended in fresh media in 6-well plates. Cells were allowed to grow for at least seven days to allow for expansion and loss of previously activated eGFP expression.
# FIG. 21A (upper left) schematically illustrates exemplary constructs utilized to generate infectious particles for the transduction of SupT1 cells with the various assay elements. FIG. 21B (right) illustrates data from a cell sorting assay comprising: a previously generated stable SupT1 cell line expressing rtTA and mCherry was infected with the reporter virus (generated from pH-5×UAS-eGFP), or co-infected with the reporter virus plus a virus encoding an inducible assay element (generated from pH-TRE-Gal4, pH-TRE-PR/Gal4, or pH-TRE-PRm/Gal4). Cells were then activated with either 1 μg/mL of Dox alone, or were pre-incubated for 5 minutes with 10 μM Indinavir following activation with 1 μg/mL Dox. […] Finally, single SupT1 cells from the purified population were sorted into 96 well plates and grown as a monoclonal population and then tested for optimal responses to assay induction of eGFP under appropriate conditions. FIG. 21C (lower left) illustrates images of fluorescence microscopy of SupT1 clones expressing the assay elements. Cells expressing various elements of the assay were treated as indicated with DMSO, DMSO+1 μg/mL Dox, or […] Dox+10 μM Indinavir and analyzed 24 hours later by fluorescence microscopy for mCherry and eGFP expression. D. Quantification of eGFP expression of clonal SupT1 cells treated with DMSO, DMSO+1 μg/mL Dox, or 1 μg/mL Dox+10 μM Indinavir.
# (§2) FIG. 22 graphically illustrates data determining the optimal conditions for activating the assay to screen for PR inhibition. FIG. 22A graphically illustrates a Doxycycline titration. Clonal SupT1 cells harboring an inducible Gal4, PR/Gal4 or PRm/Gal4 were pre-incubated in a 96 well plate with either DMSO or 10 μM Indinavir and then either left untreated, or activated with […] of Dox. Cells were analyzed by flow cytometry and gated to determine the number of cells positive for eGFP expression. FIG. 22B graphically illustrates a time course of eGFP Induction in response to Doxycyline activation in the presence of DMSO or a PI.
# [2] = tested on: tet-responsive element (TRE); assay: Doxycycline activation titration of clonal SupT1 cells (Tet-On, eGFP readout); assay type: cell-based
# Procedure: In order to optimize the assay for maximal Gal4, PR/Gal4 or PRm/Gal4 induction, we analyzed the effect of increasing levels of Dox. Cells with 0, 50, 100, 250, 500, 750, 1,000, and 2,000 ng/mL Dox were either treated with 10 uM DMSO or 10 uM Indinavir and analyzed 32 hours later. TRE-Gal4 cells reached saturation with Doxycycline at about 1,000 ng/mL whether Indinavir was present or not. […] Again, as with transiently transfected 293 cells, TRE-PR/Gal4 cells had little to non-detectable eGFP expression at any given Dox concentration in the absence of 10 μM Indinavir.
# as §2, with “PI. SupT1 clones harboring Gal4, PR/Gal4, or PRm/Gal4 were pre-incubated in a 96 well plate with either DMSO or 10 μM Indinavir and then activated with 1 μg/mL Dox. Cells were analyzed at either 4, 8, 12, 16, 20, 25, 50 or 75 hours by flow cytometry and gated for eGFP positive expression.” for “PI.”
# HIV-1 PR [3] = molecular target: T1, HIV-1 PR; assay type: cell-based; design: expressed in transfected cells; host or cells: SupT1 T-cell clone (lentiviral transduction; rtTA/mCherry, 5xUAS-eGFP reporter, inducible PR/Gal4); details: clonal SupT1, 96-well plates, pre-incubation with 1 μM PI, activation at 1 μg/mL Dox
# HIV-1 PR [4] = molecular target: T1, HIV-1 PR; assay type: cell-based; design: expressed in transfected cells; rtTA/mCherry, 5xUAS-eGFP reporter, inducible PR/Gal4; details: HEK293T cells pre-treated with 10 uM inhibitor, co-transfected with reporter and pcDNA-PR/Gal4
# Procedure: It was of critical importance to verify the ability for the PR/Gal4 fusion to activate the reporter eGFP by the addition of PR inhibitors. For that purpose, 293T cells were pre-treated with 10 μM Indinavir and then co-transfected with reporter and pcDNA-PR/Gal4 vectors.
# 293T cells were transfected as follows. 15 μl of 2 mg/mL Polyethylenimine linear 25 kD (Polysciences, Inc.) were added to 125 μl of DMEM in a 1.8 ml Eppendorf tube. 3 g of each DNA was added drop-wise to each tube. Tubes were mixed and incubated for 20 min at RT. This mixture was then added drop-wise to 293T cells in a 10 cm plate at approximately 60-75% confluence. Cells were then analyzed by fluorescence microscopy and/or flow cytometry 24 hrs post transfection.
# Top Panel: Fluorescence microscopy of eGFP expression in HEK293T cells 24 hours post transfection with the reporter vector (pFR), or co-transfection with the reporter vector plus either the Gal4, PR/Gal4, or PRm/Gal4 vectors. Bottom panel: HEK293T cells were analyzed by flow cytometry at 24 hours post transfection with the same conditions top panel. Gates were drawn to determine the ability to identify cells with an active PI. […] Quantification of eGFP expression in HEK293T transfected with various assay elements. The numbers of cells under various conditions were quantified for eGFP levels indicative of PR inhibition. Results shown are an average of 3 experiments.
# SupT1 cells = assay: Cell death in the reporter T-cell clones during PI concentration response; details: for concentration resulting in significant cell death, with decline in number of eGFP positive cells: human, 50 h
# Procedure: as §1
# Cells were then analyzed 50 hrs later for eGFP expression as determined by flow cytometry on a BD FACSAria.
# [5] = SupT1 PR/Gal4 clone, 1 μg/mL Dox, 50 hrs
# [6] = SupT1 PR/Gal4 clone, 1 μg/mL Dox
structure (smiles),measurement,setting,value
COC(=O)N[C@H](C(=O)N[C@@H](Cc1ccccc1)[C@@H](O)CN(Cc1ccc(-c2ccccn2)cc1)NC(=O)[C@@H](NC(=O)OC)C(C)(C)C)C(C)(C)C [Atazanavir],effect on PR inhibition (ranking among tested PIs),HIV-1 PR [1]; [5],strongest effect
same,concentration resulting in eGFP activation,HIV-1 PR [1]; [6],1 nM
CC(C)CN(C[C@@H](O)[C@H](Cc1ccccc1)NC(=O)O[C@H]1CO[C@H]2OCC[C@H]21)S(=O)(=O)c1ccc(N)cc1 [Darunavir],effect on PR inhibition (ranking among tested PIs),HIV-1 PR [1]; [5],strongest effect
same,concentration resulting in eGFP activation,HIV-1 PR [1]; [6],1 nM
C[C@H]1c2cccc(O)c2C(=O)C2=C(O)[C@]3(O)C(=O)C(C(N)=O)=C(O)[C@@H](N(C)C)[C@@H]3[C@@H](O)[C@@H]21 [Doxycycline],"concentration at saturation of eGFP induction, TRE-Gal4 cells","[2]; clonal SupT1 TRE-Gal4, with or without 10 uM Indinavir, 32 hours","about 1,000 ng/mL"
same,"concentration at maximal eGFP induction, TRE-PR/Gal4 cells","[2]; clonal SupT1 TRE-PR/Gal4, pre-incubation with 10 μM Indinavir, 32 hours",around 500 ng/mL
same,"concentration at saturation of eGFP induction, TRE-PRm/Gal4 cells","[2]; clonal SupT1 TRE-PRm/Gal4, uninhibited and Indinavir-treated, 32 hours",around 250 ng/mL
same,concentration at which activation is saturated (FIG. 33),[2]; clonal SupT1 cells pre-incubated with DMSO or 1 μM Indinavir,around 1 μg/mL
CC(C)(C)NC(=O)[C@@H]1CN(Cc2cccnc2)CCN1C[C@@H](O)C[C@@H](Cc1ccccc1)C(=O)N[C@H]1c2ccccc2C[C@H]1O [Indinavir],time at which activation of clones reaches max (FIG. 34),HIV-1 PR [3],around 48 hrs
same,concentration inducing nearly full activation of reporter,HIV-1 PR [1]; [5],5 µM
same,levels of reporter activation at low concentrations (ranking among tested PIs),HIV-1 PR [1]; [5],lowest levels
same,activation of PR/Gal4 clones (FIG. 31),"HIV-1 PR [1]; SupT1 PR/Gal4 clones, Dox 1 μg/mL, PI 1 μM, <1% background",~90%
same,time of initial induction of eGFP expression,"HIV-1 PR [1]; clonal SupT1, 1 μg/mL Dox and 10 μM inhibitor",8 h
same,eGFP expression (% of cells) at 50 hours,"HIV-1 PR [1]; clonal SupT1, 1 μg/mL Dox and 10 μM inhibitor, by 50 hours",~100%
same,eGFP expression,"HIV-1 PR [1]; non-clonal SupT1 cells with reporter, rtTA and pH-TRE-PR/Gal4, 1 μg/mL Dox and 10 μM inhibitor",large induction
same,eGFP expression (reporter activation by PR/Gal4),HIV-1 PR [4],drastic induction
Cc1cccc(C)c1OCC(=O)N[C@@H](Cc1ccccc1)[C@@H](O)C[C@H](Cc1ccccc1)NC(=O)[C@H](C(C)C)N1CCCNC1=O [Lopinavir],"concentration resulting in significant cell death, with decline in number of eGFP positive cells",SupT1 cells,around 1 uM
Cc1c(O)cccc1C(=O)N[C@@H](CSc1ccccc1)[C@H](O)CN1C[C@H]2CCCC[C@H]2C[C@H]1C(=O)NC(C)(C)C [Nelfinavir],"concentration resulting in significant cell death, with decline in number of eGFP positive cells",SupT1 cells,around 1 uM
CC(C)(C)NC(=O)[C@@H]1C[C@@H]2CCCC[C@@H]2CN1C[C@@H](O)[C@H](Cc1ccccc1)NC(=O)[C@H](CC(N)=O)NC(=O)c1ccc2ccccc2n1 [Saquinavir],concentration with significant cell death / decline in number of eGFP positive cells,"SupT1 cells; SupT1 PR/Gal4 clone, 50 hrs, maximal level tested",20 µM
